Measured values as given in patent publication US20250042903A1, “TRIAZINE INHIBITORS OF CYCLIN-DEPENDENT KINASES” (H. LEE MOFFITT CANCER CENTER AND RESEARCH INSTITUTE, INC., priority 2021, published 2025).

Legend:
[1] = biological target: cyclin-dependent kinase 12 (Homo sapiens (Human), UniProt Q9NYV4); test: Inhibition of cyclin-dependent kinase 12; format: biochemical; settings: read-out: CDK12 inhibition, IC50
Text: (§1) The inhibitory and antiproliferative activities of selected compounds disclosed herein against cyclin-dependent kinase 12 were investigated.

[2] = tested on: MDA-MB-231; test: Antiproliferative activity in MDA-MB-231; format: cell-based; settings: Homo sapiens
Text: as §1

Sequence of cyclin-dependent kinase 12 (Q9NYV4 whole entry): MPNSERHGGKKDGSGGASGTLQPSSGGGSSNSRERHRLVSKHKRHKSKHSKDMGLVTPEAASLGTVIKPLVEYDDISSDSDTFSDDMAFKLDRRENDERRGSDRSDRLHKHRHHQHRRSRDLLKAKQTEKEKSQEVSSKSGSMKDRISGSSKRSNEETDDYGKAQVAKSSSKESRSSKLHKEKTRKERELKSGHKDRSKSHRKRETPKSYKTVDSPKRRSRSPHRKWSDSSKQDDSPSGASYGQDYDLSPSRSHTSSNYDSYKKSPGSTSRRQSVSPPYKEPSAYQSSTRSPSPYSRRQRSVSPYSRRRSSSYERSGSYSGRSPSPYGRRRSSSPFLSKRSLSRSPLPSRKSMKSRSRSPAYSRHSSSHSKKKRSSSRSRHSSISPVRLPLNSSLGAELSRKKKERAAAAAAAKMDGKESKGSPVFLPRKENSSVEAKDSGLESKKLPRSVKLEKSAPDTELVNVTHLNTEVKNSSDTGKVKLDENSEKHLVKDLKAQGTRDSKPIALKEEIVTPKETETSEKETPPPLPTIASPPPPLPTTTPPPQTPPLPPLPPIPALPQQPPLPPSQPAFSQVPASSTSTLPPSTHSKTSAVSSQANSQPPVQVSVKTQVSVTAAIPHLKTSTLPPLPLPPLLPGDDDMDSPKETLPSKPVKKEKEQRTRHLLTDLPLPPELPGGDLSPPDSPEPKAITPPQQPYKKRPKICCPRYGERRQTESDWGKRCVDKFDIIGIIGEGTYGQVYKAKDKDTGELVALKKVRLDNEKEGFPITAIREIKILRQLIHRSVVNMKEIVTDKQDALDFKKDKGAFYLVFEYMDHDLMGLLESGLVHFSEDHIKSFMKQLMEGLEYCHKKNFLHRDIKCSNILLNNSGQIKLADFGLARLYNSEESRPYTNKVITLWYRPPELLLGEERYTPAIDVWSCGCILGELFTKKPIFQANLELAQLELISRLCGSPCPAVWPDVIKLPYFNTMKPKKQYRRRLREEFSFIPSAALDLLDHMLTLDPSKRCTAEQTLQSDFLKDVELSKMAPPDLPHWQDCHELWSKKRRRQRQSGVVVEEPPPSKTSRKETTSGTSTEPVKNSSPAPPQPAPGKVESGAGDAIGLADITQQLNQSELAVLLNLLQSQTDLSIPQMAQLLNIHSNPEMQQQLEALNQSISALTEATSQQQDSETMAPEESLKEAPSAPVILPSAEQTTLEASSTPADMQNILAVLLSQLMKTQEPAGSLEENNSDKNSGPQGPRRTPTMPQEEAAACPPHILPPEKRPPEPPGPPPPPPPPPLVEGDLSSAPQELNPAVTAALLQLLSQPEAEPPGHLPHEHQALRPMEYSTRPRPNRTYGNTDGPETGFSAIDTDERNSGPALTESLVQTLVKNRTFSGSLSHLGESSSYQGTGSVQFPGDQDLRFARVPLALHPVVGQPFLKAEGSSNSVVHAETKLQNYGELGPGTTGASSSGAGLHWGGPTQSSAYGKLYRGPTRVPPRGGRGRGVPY
Sequence of cyclin-dependent kinase 12 (O75909 whole entry partner): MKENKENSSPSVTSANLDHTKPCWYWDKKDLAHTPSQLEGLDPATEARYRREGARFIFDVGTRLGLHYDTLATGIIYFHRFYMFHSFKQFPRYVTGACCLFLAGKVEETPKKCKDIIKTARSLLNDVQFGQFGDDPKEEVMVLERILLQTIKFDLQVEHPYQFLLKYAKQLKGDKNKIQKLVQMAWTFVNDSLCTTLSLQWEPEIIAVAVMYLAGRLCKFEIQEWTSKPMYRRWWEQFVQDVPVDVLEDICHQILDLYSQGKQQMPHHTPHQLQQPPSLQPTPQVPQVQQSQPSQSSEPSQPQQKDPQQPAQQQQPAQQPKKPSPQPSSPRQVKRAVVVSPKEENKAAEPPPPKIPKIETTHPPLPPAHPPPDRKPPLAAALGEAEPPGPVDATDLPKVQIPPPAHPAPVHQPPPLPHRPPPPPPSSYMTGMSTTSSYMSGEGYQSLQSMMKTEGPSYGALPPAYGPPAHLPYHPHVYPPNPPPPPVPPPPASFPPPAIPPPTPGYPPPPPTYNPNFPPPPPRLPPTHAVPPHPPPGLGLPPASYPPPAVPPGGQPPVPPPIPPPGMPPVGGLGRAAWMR

Row | Compound | IC50 [1] | GI50 [2]
1 | Cn1cc(-c2cnn3c(NCc4nc5cc(Cl)c(Cl)cc5[nH]4)nc(N4CCOCC4)nc23)cn1 [Compound 1, N-((5,6-dichloro-1H-benzo[d]imidazol-2-yl)methyl)-8-(1-methyl-1H-pyrazol-4-yl)-2-morpholinopyrazolo[1,5-a][1,3,5]triazin-4-amine] | 0.554 µM | 0.419 µM
2 | FC(F)n1cc(-c2cnn3c(NCc4nc5cc(Cl)c(Cl)cc5[nH]4)nc(N4CCOCC4)nc23)cn1 [Compound 2, N-((5,6-dichloro-1H-benzo[d]imidazol-2-yl)methyl)-8-(1-(difluoromethyl)-1H-pyrazol-4-yl)-2-morpholinopyrazolo[1,5-a][1,3,5]triazin-4-amine] | 0.262 µM | 0.15 µM
3 | FC(F)n1cc(-c2cnn3c(NCc4nc5cc(Cl)c(Cl)cc5[nH]4)nc(N4CCC(F)(F)CC4)nc23)cn1 [Compound 3, N-((5,6-dichloro-1H-benzo[d]imidazol-2-yl)methyl)-8-(1-(difluoromethyl)-1H-pyrazol-4-yl)-2-(4,4-difluoropiperidin-1-yl)pyrazolo[1,5-a][1,3,5]triazin-4-amine] | > 10 µM | 0.71 µM
4 | OC[C@@H]1COCCN1c1nc(NCc2nc3cc(Cl)c(Cl)cc3[nH]2)n2ncc(-c3cnn(C(F)F)c3)c2n1 [Compound 4, (R)-(4-(4-(((5,6-dichloro-1H-benzo[d]imidazol-2-yl)methyl)amino)-8-(1-(difluoromethyl)-1H-pyrazol-4-yl)pyrazolo[1,5-a][1,3,5]triazin-2-yl)morpholin-3-yl)methanol] | 4.05 µM | 0.384 µM
5 | Clc1cc2nc(CNc3nc(N4CCOCC4)nc4c(-c5ccsc5)cnn34)[nH]c2cc1Cl [Compound 5, N-((5,6-dichloro-1H-benzo[d]imidazol-2-yl)methyl)-2-morpholino-8-(thiophen-3-yl)pyrazolo[1,5-a][1,3,5]triazin-4-amine] | 2.42 µM | 0.764 µM
6 | FC(F)n1cc(-c2cnn3c(NCc4nc5cccc(Cl)c5[nH]4)nc(N4CCOCC4)nc23)cn1 [Compound 6, N-((7-chloro-1H-benzo[d]imidazol-2-yl)methyl)-8-(1-(difluoromethyl)-1H-pyrazol-4-yl)-2-morpholinopyrazolo[1,5-a][1,3,5]triazin-4-amine] | 0.065 µM | 0.062 µM
7 | FC(F)n1cc(-c2cnn3c(NCc4nc5cccc(Cl)c5[nH]4)nc(N4CCC(F)(F)CC4)nc23)cn1 [Compound 7, N-((7-chloro-1H-benzo[d]imidazol-2-yl)methyl)-8-(1-(difluoromethyl)-1H-pyrazol-4-yl)-2-(4,4-difluoropiperidin-1-yl)pyrazolo[1,5-a][1,3,5]triazin-4-amine] | 0.552 µM | 0.98 µM
8 | Fc1cccc2nc(CNc3nc(N4CCOCC4)nc4c(-c5cnn(C(F)F)c5)cnn34)[nH]c12 [Compound 8, 8-(1-(difluoromethyl)-1H-pyrazol-4-yl)-N-((7-fluoro-1H-benzo[d]imidazol-2-yl)methyl)-2-morpholinopyrazolo[1,5-a][1,3,5]triazin-4-amine] | 0.044 µM | 0.044 µM
9 | Clc1cccc2nc(CNc3nc(N4CCOCC4)nc4c(-c5ccsc5)cnn34)[nH]c12 [Compound 9, N-((7-chloro-1H-benzo[d]imidazol-2-yl)methyl)-2-morpholino-8-(thiophen-3-yl)pyrazolo[1,5-a][1,3,5]triazin-4-amine] | 0.377 µM | 0.227 µM
10 | CN1CCN(c2nc(NCc3nc4cccc(Cl)c4[nH]3)n3ncc(-c4ccsc4)c3n2)CC1 [Compound 10, N-((7-chloro-1H-benzo[d]imidazol-2-yl)methyl)-2-(4-methylpiperazin-1-yl)-8-(thiophen-3-yl)pyrazolo[1,5-a][1,3,5]triazin-4-amine] | 1.56 µM | 0.835 µM
11 | Fc1cc2nc(CNc3nc(N4CCOCC4)nc4c(-c5ccsc5)cnn34)[nH]c2cc1F [Compound 11, N-((5,6-difluoro-1H-benzo[d]imidazol-2-yl)methyl)-2-morpholino-8-(thiophen-3-yl)pyrazolo[1,5-a][1,3,5]triazin-4-amine] | 0.196 µM | 0.061 µM
12 | Cn1cc(-c2cnn3c(NCc4nc5cccc(Cl)c5[nH]4)nc(N4CCOCC4)nc23)cn1 [Compound 12, N-((7-chloro-1H-benzo[d]imidazol-2-yl)methyl)-8-(1-methyl-1H-pyrazol-4-yl)-2-morpholinopyrazolo[1,5-a][1,3,5]triazin-4-amine] | 0.289 µM | 1.11 µM
13 | Cn1cc(-c2cnn3c(NCc4nc5cccc(Cl)c5[nH]4)nc(N4CCC(F)(F)CC4)nc23)cn1 [Compound 13, N-((7-chloro-1H-benzo[d]imidazol-2-yl)methyl)-2-(4,4-difluoropiperidin-1-yl)-8-(1-methyl-1H-pyrazol-4-yl)pyrazolo[1,5-a][1,3,5]triazin-4-amine] | 1.28 µM | 3.77 µM
14 | Cn1cc(-c2cnn3c(NCc4nc5cc(F)c(F)cc5[nH]4)nc(N4CCOCC4)nc23)cn1 [Compound 14, N-((5,6-difluoro-1H-benzo[d]imidazol-2-yl)methyl)-8-(1-methyl-1H-pyrazol-4-yl)-2-morpholinopyrazolo[1,5-a][1,3,5]triazin-4-amine] | 1.35 µM | 1.24 µM
